Test results taken from the supplement of paper PMC10307832.

Assays:
Assay in all cases: relative viability (nuclei count vs DMSO), 5 days (fraction); higher = more cells survive
[1] = compound: O=C(NCCCNc1nc(Nc2cccc(NC(=O)N3CCCC3)c2)ncc1I)c1cccs1 [BX 795]
Summary of the method: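 A plate was accepted only when its control CV was below 25% and the cells had doubled at least once. Viability is defined from nuclear counts as treated wells divided by vehicle wells, with the median taken across plates. That median covers lung cancer cell lines grown in 1536-well plates, dosed by pinning at five √10-spaced library-drug concentrations, and counted in MetaXpress from 4× Hoechst images after 5 days.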

[2] = compound: O=C(NCCCNc1nc(Nc2cccc(NC(=O)N3CCCC3)c2)ncc1I)c1cccs1 [BX 795] + C[C@]1(O)C[C@@H](c2nc(-c3ccc4ccc(-c5ccccc5)nc4c3)c3c(N)nccn32)C1 [Linsitinib] (partner 1 µM)
Summary of the method: (§1)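 Medians of duplicate plates are given as relative viability. That measure is the nuclei count in treated wells divided by the count in vehicle wells. Counts were taken on 4× images of lung cancer cell lines in 1536-well plates, 5 days after pin-tool dosing the day after seeding with one drug alone or a fixed anchor-drug dose plus five library-drug doses (not always all listed) in √10 steps.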

[3] = compound: O=C(NCCCNc1nc(Nc2cccc(NC(=O)N3CCCC3)c2)ncc1I)c1cccs1 [BX 795] + Cc1nc(Nc2ncc(C(=O)Nc3c(C)cccc3Cl)s2)cc(N2CCN(CCO)CC2)n1 [Dasatinib] (partner 0.075 µM)
Summary of the method: as §1

[4] = compound: O=C(NCCCNc1nc(Nc2cccc(NC(=O)N3CCCC3)c2)ncc1I)c1cccs1 [BX 795] + N=C(N)NC(=N)NCCc1ccccc1 [Phenformin] (partner 250 µM)
Summary of the method: as §1

[5] = compound: O=C(NCCCNc1nc(Nc2cccc(NC(=O)N3CCCC3)c2)ncc1I)c1cccs1 [BX 795] + NC(=O)Nc1cc(-c2cccc(F)c2)sc1C(=O)N[C@H]1CCCNC1 [AZD7762] (partner 0.2 µM)
Summary of the method: as §1

Cell Line	relative viability ([1]; 0.04 µM)	relative viability ([1]; 0.1265 µM)	relative viability ([1]; 0.4 µM)	relative viability ([1]; 1.265 µM)	relative viability ([2]; first compound 0.04 µM)	relative viability ([2]; first compound 0.1265 µM)	relative viability ([2]; first compound 0.4 µM)	relative viability ([2]; first compound 1.265 µM)	relative viability ([3]; first compound 0.04 µM)	relative viability ([3]; first compound 0.1265 µM)	relative viability ([3]; first compound 0.4 µM)	relative viability ([3]; first compound 1.265 µM)	relative viability ([4]; first compound 0.04 µM)	relative viability ([4]; first compound 0.1265 µM)	relative viability ([4]; first compound 0.4 µM)	relative viability ([4]; first compound 1.265 µM)	relative viability ([5]; first compound 0.04 µM)	relative viability ([5]; first compound 0.1265 µM)	relative viability ([5]; first compound 0.4 µM)	relative viability ([5]; first compound 1.265 µM)
NCI-H647	0.81	1.02	0.891	0.82	1.25	1.16	1.28	0.601	0.19	0.196	0.151	0.0897	0.456	0.541	0.572	0.266	0.554	0.493	0.43	0.363
NCI-H2087	1.07	1.14	1.15	0.941	1.1	0.924	1.06	0.647	0.895	0.814	0.79	0.619	0.547	0.545	0.563	0.411	1.26	1.33	1.32	1.13
NCI-H1792	0.93	0.818	1.12	0.867	0.559	0.673	0.461	0.424	0.792	0.764	0.821	0.664	0.431	0.463	0.216	0.178	0.616		0.696	0.576
NCI-H1915	1.03	0.974	0.955	0.903	1.16	1.09	1.08	1.02	0.323	0.285	0.306	0.29	0.388	0.389	0.38	0.301	0.651	0.658	0.666	0.695
NCI-H1993	1.05	0.983	0.926	0.893	0.628	0.732	0.713	0.696	0.454	0.56	0.472	0.525	0.492	0.499	0.485	0.523	0.759	0.795	0.589	0.809
NCI-H23	1.07	0.952	0.896	0.769	0.584	0.655	0.441	0.387	0.871	0.8	0.507	0.884	0.803	0.825	0.794	0.782	0.38	0.231	0.237	0.345
EKVX	0.934	0.975	0.883	0.93	1.1	1.21	0.833	0.839	0.637	0.295	0.539	0.508	0.225	0.247	0.21	0.217	0.67	0.805	0.671	0.645
HOP-62	0.963	1.06	1.21	1	0.915	1.02	1.2	0.525	0.659	0.797	0.668	0.576	0.711	0.744	0.789	0.667	0.602	0.715	0.672	0.528
